In general, IC50 refers to the midpoint of a concentration-inhibition curve.

11 compounds from patent publication US20250019385A1, “SPIROCYCLIC ANNULATED 2-AMINO-3-CYANO THIOPHENES AND DERIVATIVES FOR THE TREATMENT OF CANCER” (Boehringer Ingelheim International GmbH, priority 2023, published 2025) can be followed below.

In series [1] the target is KRAS (G12D)::CRAF protein::protein interaction (Homo sapiens (Human), UniProt P01116, G12D). The experiment in a line: KRAS TR-FRET assay (KRAS G12D::CRAF, GTP). It counts as binding. The method, then:
(§1) This assay measures the inhibitory effect of compounds on KRAS::CRAF protein::protein interactions in the presence of GTP using Time-resolved fluorescence energy transfer (TR-FRET).
(§2) The following wildtype or mutant alleles of KRAS and CRAF protein have been used at the given concentrations:
KRAS (G12D) 1-169, N-terminal 6His-tag, C-terminal avi-tag (Xtal BioStructures, Inc.); final assay concentration 15 nM,
(§3) CRAF Ras binding domain, GST-tag, TEV cleavage site (Boehringer Ingelheim in house protein prep); final assay concentration 15 nM.
(§4) Test compounds dissolved in DMSO were dispensed onto assay plates (Proxiplate 384 PLUS, white, PerkinElmer; 6008289) using an Access Labcyte Workstation with the Labcyte Echo 55x. For the chosen highest assay concentration of 100 μM, 150 nl of compound solution was transferred from a 10 mM DMSO compound stock solution. A series of eleven fivefold dilutions per compound was transferred to the assay plate, compound dilutions were tested in duplicates. DMSO was added as backfill to a total volume of 150 nl.
(§5) The assay runs on a fully automated robotic system. To 150 nl of compound dilution 15 μl of a mix including the respective KRAS allele, CRAF (e.g. KRAS (G12D)::CRAF; final assay concentrations see above), GTP nucleotide (Sigma G8877; final assay concentration 10 μM), Lance Eu—W1024 labeled Streptavidin (PerkinElmer, Cat No AD0063; final assay concentration 1.5 nM) and Anti-GST surelight APC (PerkinElmer, Cat No AD0059G; final assay concentration 30 nM) in assay buffer (1×PBS, 0.1% BSA, 0.05% Tween 20) are added into columns 1-23 and 15 μL of the solution without the respective KRAS allele were added to row 24.
(§6) Plates are kept at room temperature in a darkened incubator. After 60 minutes incubation time the signal is measured in a PerkinElmer Envision HTS Multilabel Reader using the TR-FRET LANCE Ultra specs from PerkinElmer.
(§7) Each plate contains 16 wells of a negative control (diluted DMSO instead of test compound; w respective KRAS allele; column 23) and 16 wells of a positive control (diluted DMSO instead of test compound; w/o respective KRAS allele; column 24).
(§8) IC50 values were calculated and analyzed with Boehringer Ingelheim's MEGALAB 50 application using a 4 parametric logistic model.
(§9) Tables of example compounds disclosed herein contain IC50 values determined using the above assays (see Table 44).

Series [2] concerns the target KRAS (G12V)::CRAF protein::protein interaction (Homo sapiens (Human), UniProt P01116, C118S/G12V). The experiment in a line: KRAS TR-FRET assay (KRAS G12V::CRAF, GTP). It counts as binding. The protocol: as §1, §2
KRAS (G12V) 1-169, C118S, N-terminal 6His-tag, C-terminal avi-tag (Boehringer Ingelheim in house protein prep); final assay concentration 15 nM.
as §3, §4, §5, §6, §7, §8, §9
(Time-resolved FRET reads energy transfer from a long-lived donor to a nearby acceptor.)

Series [3] addresses KRAS (WT)::CRAF protein::protein interaction (Homo sapiens (Human), UniProt P01116). In words: KRAS TR-FRET assay (KRAS WT::CRAF, GTP). Format: binding. The protocol: as §1, §2
KRAS (WT) 1-169, N-terminal 6His-tag, C-terminal avi-tag (Boehringer Ingelheim in house protein prep); final assay concentration 15 nM.
as §3, §4, §5, §6, §7, §8, §9

In a further series the target is CYP3A4 (Homo sapiens (Human), UniProt P08684). In words: Mechanism based inhibition of CYP3A4 assay (MBI 3A4). The settings on record: human liver microsomes, 25 uM compound; hydroxy-midazolam formation after 30 min preincubation relative to 0 min. It counts as in vitro ADME. The method, then:
The time dependent inhibition towards CYP3A4 is assayed in human liver microsomes (0.02 mg/mL) with midazolam (15 μM) as a substrate. The test compounds and water control (wells w/o test compound) are preincubated in presence of NADPH (1 mM) with human liver microsomes (0.2 mg/mL) at a concentration of 25 uM for 0 min and 30 min. After preincubation, the incubate is diluted 1:10 and the substrate midazolam is added for the main incubation (15 min). The main incubation is quenched with acetonitrile and the formation of hydroxy-midazolam is quantified via LC/MS-MS. The formation of hydroxy-midazolam from the 30 min preincubation relative to the formation from the 0 min preincubation is used as a readout. Values of less than 100% mean that the substrate midazolam is metabolized to a lower extent upon 30 min preincubation compared to 0 min preincubation. In general low effects upon 30 min preincubation are desired (corresponding to values close to 100%/not different to the values determined with water control).
On the technique in general: Liver microsomes are a subcellular fraction often used to study metabolism.

Series [4] in a line: Caco-2 assay (permeability and efflux ratio). Format: in vitro ADME. The following applies: human; for Papp A→B at 90 min, 10 μM: Caco-2 apical to basolateral permeability, pH 7.4, read-out: Caco PappAB; for efflux ratio at 90 min, 10 μM: pH 7.4, Caco-2 efflux ratio PappBA/PappAB, read-out: Caco ER. The protocol: (§10) The assay provides information on the potential of a compound to pass the cell membrane, on the extent of oral absorption as well as on whether the compound is actively transported by uptake and/or efflux transporters. Permeability measurements across polarized, confluent Caco-2 cell monolayers grown on permeable filter supports (Corning, catalog #3391) are used. 10 μM test compound solution in assay buffer (128.13 mM NaCl, 5.36 mM KCl, 1 mM MgSO4, 1.8 mM CaCl2), 4.17 mM NaHCO3, 1.19 mM Na2HPO4, 0.41 mM NaH2PO4, 15 mM 2-[4-(2-hydroxyethyl)piperazin-1-yl]ethanesulfonic acid (HEPES), 20 mM glucose, pH 7.4) was added to the donor compartment of the cell chamber containing a monolayer of Caco-2 cells in between the donor and the receiver compartment. The receiver and donor compartments contain 0.25% bovine serum albumine (BSA) in assay buffer. Passive diffusion and/or active transport of compounds across the monolayer is measured in both apical to basolateral (a-b) and basolateral to apical (b-a) direction. a-b permeability (PappAB) represents drug absorption from the intestine into the blood and b-a permeability (PappBA) drug secretion from the blood back into the intestine via both passive permeability as well as active transport mechanisms mediated by efflux and uptake transporters that are expressed on the Caco-2 cells. After a pre-incubation of 25-30 min at 37° C., at predefined time points (0, 30, 60 and 90 min), samples were taken from the receiver and donor compartment, respectively. Concentrations of test compounds in samples were measured by HPLC/MS/MS, samples from the donor compartment were diluted 1:50 (v:v) with assay buffer, samples from receiver compartment were measured without dilution.
(§11) Apparent permeabilities in a-b (PappAB) and b-a (PappBA) directions are calculated according to the formula:
(§12) [formula] • Vrec [mL]: buffer volume in receiver compartment • Cdon [μmol/mL]: concentration of test compound in donor compartment at t=0 • ΔCrec: difference between concentrations of test compound in receiver compartment at start and end of incubation time • Δt: Incubation time • Vrec·ΔCrec/Δt [μmol/min]: Amount of compound transferred to receiver compartment per time • A [cm^2]: filter surface
(§13) Caco-2 efflux ratios (ER) are calculated as the ratio of PappBA/PappAB.

The next series has as its system Caco-2 cell monolayers. In words: Caco-2 assay (permeability and efflux ratio). It counts as in vitro ADME. The settings on record: 10 μM. The protocol: as §10, §11, §12, §13
In general terms: Passage across Caco-2 layers is used to estimate intestinal permeability.

KRAS (G12D)::CRAF protein::protein interaction, sequence (P01116 other isoform, or with tags, fused parts or gaps G12D): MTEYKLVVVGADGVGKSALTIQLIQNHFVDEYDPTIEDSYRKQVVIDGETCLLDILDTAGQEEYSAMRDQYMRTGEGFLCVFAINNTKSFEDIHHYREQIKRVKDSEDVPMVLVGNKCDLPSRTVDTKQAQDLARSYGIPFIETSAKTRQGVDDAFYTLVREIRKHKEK
KRAS (G12V)::CRAF protein::protein interaction, sequence (P01116 other isoform, or with tags, fused parts or gaps G12V/C118S): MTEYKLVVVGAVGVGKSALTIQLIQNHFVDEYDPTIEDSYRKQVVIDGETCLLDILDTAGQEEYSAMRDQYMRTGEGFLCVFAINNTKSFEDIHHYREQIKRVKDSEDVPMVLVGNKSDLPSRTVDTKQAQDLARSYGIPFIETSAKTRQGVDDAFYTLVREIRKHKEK
CYP3A4, sequence (P08684 whole entry): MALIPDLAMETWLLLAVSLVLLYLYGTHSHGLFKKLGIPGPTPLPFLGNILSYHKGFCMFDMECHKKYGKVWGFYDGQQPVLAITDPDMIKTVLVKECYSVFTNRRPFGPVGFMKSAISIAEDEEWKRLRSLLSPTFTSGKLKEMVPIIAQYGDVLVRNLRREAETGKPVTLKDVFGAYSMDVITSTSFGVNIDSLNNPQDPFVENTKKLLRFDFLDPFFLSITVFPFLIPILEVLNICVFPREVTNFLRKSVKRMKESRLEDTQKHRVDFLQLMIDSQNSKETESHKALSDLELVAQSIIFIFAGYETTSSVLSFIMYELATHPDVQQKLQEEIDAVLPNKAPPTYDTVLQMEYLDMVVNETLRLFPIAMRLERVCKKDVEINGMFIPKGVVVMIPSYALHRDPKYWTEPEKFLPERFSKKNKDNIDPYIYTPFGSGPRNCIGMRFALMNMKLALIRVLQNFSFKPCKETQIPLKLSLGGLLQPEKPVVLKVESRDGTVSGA
KRAS (WT)::CRAF protein::protein interaction, sequence (P01116 other isoform, or with tags, fused parts or gaps): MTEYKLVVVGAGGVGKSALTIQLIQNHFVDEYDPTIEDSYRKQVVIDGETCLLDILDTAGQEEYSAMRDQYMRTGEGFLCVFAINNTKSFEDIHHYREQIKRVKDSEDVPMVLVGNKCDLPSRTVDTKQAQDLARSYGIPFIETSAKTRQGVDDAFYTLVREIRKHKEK

As to `C[C@H](Oc1nc(-c2onc3c2CCC[C@@]32CCCc3sc(N)c(C#N)c32)nc2c1[nH]c(=O)n2[C@@H]1CCOC1)[C@@H]1CCCN1C` [I-8], the IC50 in series [1] turned out to be 47 nM; in series [2], 20 nM; in series [3], 45 nM. Moreover, the “MBI 3A4” value on CYP3A4 was 61%. For the same compound, in series [4], the Papp A→B at 90 min, 10 μM came to 0.8 ×10⁻⁶ cm/s. In addition, the efflux ratio at 90 min, 10 μM in series [4] amounted to 46.3.

Consider `C[C@H](Oc1nc(-c2onc3c2CCC[C@@]32CCCc3sc(N)c(C#N)c32)nc2c1n(C)c(=O)n2[C@H]1CCOC1)[C@@H]1CCCN1C` [I-9], for which the IC50 in series [1] was determined as 418 nM; in series [2], 199 nM; in series [3] it was 611 nM. The “MBI 3A4” value at CYP3A4 was 83%. For the same compound, the Papp A→B at 90 min, 10 μM in series [4] was determined as 20 ×10⁻⁶ cm/s. For the same compound, the efflux ratio at 90 min, 10 μM in series [4] is 2.7.

As for `C[C@H](Oc1nc(-c2onc3c2CCC[C@@]32CCCc3sc(N)c(C#N)c32)nc2c1n(C)c(=O)n2[C@@H]1CCCOC1)[C@@H]1CCCN1C` [I-12], the results for the IC50 in series [1], in series [2] and in series [3] were 62 nM, 22 nM and 37 nM, respectively. For the same compound, the “MBI 3A4” value at CYP3A4 was 75%. In series [4], the Papp A→B at 90 min, 10 μM came out at 25.5 ×10⁻⁶ cm/s. In addition, the efflux ratio at 90 min, 10 μM in series [4] is 1.7.

As to `C[C@H](Oc1nc(-c2onc3c2CCC[C@@]32CCCc3sc(N)c(C#N)c32)nc2c1n(C)c(=O)n2[C@@H]1CCOC1)[C@@H]1CCCN1C` [I-20], the half-inhibitory concentration (IC50) in series [1] came out at 46 nM; in series [2] it was 21 nM; in series [3], 50 nM. The “MBI 3A4” value at CYP3A4 was determined as 92%. Further, in series [4], the Papp A→B at 90 min, 10 μM is 11.9 ×10⁻⁶ cm/s. Also, the efflux ratio at 90 min, 10 μM in series [4] was determined as 6.2.

Regarding `C[C@H](Oc1nc(-c2onc3c2CCC[C@@]32CCCc3sc(N)c(C#N)c32)nc2c1n(C)c(=O)n2[C@@H]1CCOC1)C12CCCN1CCC2` [I-25], the figures for the IC50 in series [1], in series [2] and in series [3] were 53 nM, 26 nM and 53 nM, respectively. Also, the “MBI 3A4” value at CYP3A4 was found to be 60%. Further, the Papp A→B at 90 min, 10 μM in series [4] came to 2.9 ×10⁻⁶ cm/s. In series [4], the efflux ratio at 90 min, 10 μM stood at 18.6.

With `C[C@H](Oc1nc(-c2onc3c2CCC[C@@]32CCCc3sc(N)c(C#N)c32)nc2c1n(C)c(=O)n2[C@@H]1CCOC1)[C@@H]1CC[C@H](C)N1C` [I-26], the IC50 is 58 nM in series [1], 22 nM in series [2] and 50 nM in series [3]. Also, on CYP3A4, the “MBI 3A4” value is listed as 83%. In addition, the Papp A→B at 90 min, 10 μM in series [4] stood at 43 ×10⁻⁶ cm/s. Also, the efflux ratio at 90 min, 10 μM in series [4] is 1.

For the compound `C[C@H](Oc1nc(-c2onc3c2CCC[C@@]32CCCc3sc(N)c(C#N)c32)nc2c1n(C)c(=O)n2[C@@]12COC[C@@H]1C2)[C@@H]1CCCN1C` [I-29], the values for the IC50 in series [1], in series [2] and in series [3] were 85 nM, 18 nM and 37 nM, respectively. Also, the “MBI 3A4” value at CYP3A4 was found to be 79%. Besides, the Papp A→B at 90 min, 10 μM in series [4] amounted to 19 ×10⁻⁶ cm/s. In series [4], the efflux ratio at 90 min, 10 μM turned out to be 2.5.

Take `C[C@H](Oc1nc(-c2onc3c2CCC[C@@]32CCCc3sc(N)c(C#N)c32)nc2c1COC[C@]21CCOC1)[C@@H]1CCCN1C` [I-54]: the IC50 in series [1] was determined as 25 nM; in series [2] it was 12 nM; in series [3] it was 33 nM. Besides, at CYP3A4, the “MBI 3A4” value was found to be 83%.

Turning to `C[C@H](Oc1nc(-c2noc3c2CCC[C@@]32CCCc3sc(N)c(C#N)c32)nc2c1COC[C@]21CCOC1)[C@@H]1CCCN1C` [II-8], the half-maximal inhibitory concentration (IC50) in series [1] stood at 17 nM; in series [2], 11 nM; in series [3] it was 24 nM. The “MBI 3A4” value at CYP3A4 turned out to be 85%. The Papp A→B at 90 min, 10 μM in series [4] was found to be 23 ×10⁻⁶ cm/s. In addition, the efflux ratio at 90 min, 10 μM in series [4] was determined as 1.6.

As to `C[C@H](Oc1nc(-c2noc3c2CCC[C@@]32CCCc3sc(N)c(C#N)c32)nc2c1CCO[C@]21CCOC1)[C@@H]1CCCN1C` [II-9b], the IC50 in series [1] turned out to be 117 nM; in series [2] it was 35 nM; in series [3] it was 80 nM. Besides, on CYP3A4, the “MBI 3A4” value was determined as 101%. Also, the Papp A→B at 90 min, 10 μM in series [4] came to 25 ×10⁻⁶ cm/s. In addition, the efflux ratio at 90 min, 10 μM in series [4] worked out at 1.8.

Regarding `C[C@H](Oc1nc(-c2noc3c2CCC[C@@]32CCCc3sc(N)c(C#N)c32)nc2c1CC[C@]21CNCCO1)[C@@H]1C[C@@H](F)CN1C` [II-20], the IC50 in series [1] is 82 nM; in series [2] it was 129 nM; in series [3], 815 nM. Besides, the “MBI 3A4” value on CYP3A4 is given as 95%. In addition, in the series on Caco-2 cell monolayers (Caco-2 apical to basolateral permeability, pH 7.4), the “Caco PappAB” value was 0.3 ×10⁻⁶ cm/s. Moreover, the “Caco ER” value with Caco-2 cell monolayers (Caco-2 efflux ratio PappBA/PappAB) was 303.8.
